Experimental data reported in a melting point compilation (Tetko et al.; mined from patent text by program, amines drawn as free bases though some values may be those of a salt).

melting point [°C]	SMILES
236 to 240	CC(=C1SC(=O)NC1=O)c1cccc(OCCOc2c(-c3ccc(F)c(F)c3)n(C)c3ccccc3c2=O)c1
175 to 180	CC(CCc1c[nH]c2c(F)cc(F)cc12)N(CC1CC1)C1COc2c(F)ccc(C(N)=O)c2C1 (stereo unspecified)
74 to 76	Cc1ccc(CC(C)(C)C(=O)C=CN(C)C)cc1
140 to 142	CCOC(=O)c1cnn(-c2ccccn2)c1S(=O)(=O)NC(=O)Nc1nc(OC)cc(OC)n1
47 to 49	O=C(c1ccccc1)c1ccc(OCCCCCCBr)cc1
60 to 62	CCOC(=O)CCCNc1ccccc1-c1ccccc1
150 to 153	O=C(N[C@@H](CSc1ccc(C(F)(F)F)cc1[N+](=O)[O-])C(=O)O)OCc1ccccc1
102 to 104	O=C(NC(CCC(=O)N1CCCC1C(=O)O)C(=O)O)c1ccccc1 (stereo unspecified)
230 to 233	CSc1ccc(-n2c(-c3ccc(C)cc3)nc(SC)c(C#N)c2=O)cc1
214 to 216	O=C(CCl)Nc1cc(C(=O)O)cc(OCc2ccccc2)c1C(=O)c1ccccc1
52	CC(=O)CC(=O)NC1CCCC1
214 to 218	O=C(O)C1(c2ccc(C#Cc3ccccc3)cc2)CC1
158	O=C1c2nccc(-c3ccccc3NC(=O)C(F)(F)F)c2C(=O)c2c([N+](=O)[O-])ccnc21
149 to 152	CCOC(=O)c1cnc2ccc(Cl)nn2c1=O
185 to 186	COc1cnc(OC)n2nc(N)nc12
181 to 182	O=C(O)c1cccc(-n2nnnc2S)c1

The next lines start with the compound.

SMILES	melting point [°C]
CCC(O)(CC)C1(c2onc(-c3ccc(O)cc3)c2-c2ccccc2)CC1	118 to 119
O=c1[nH]c2sc3ccc(I)cc3c2[nH]c1=O	> 300
COc1cc(OC)nc(NC(=O)NS(=O)(=O)c2ccccc2S(=O)(=O)OCC(F)(F)F)n1	203 to 205
Cc1sc(C)c2c(=O)n3cc(C(N)=O)ccc3nc12	272 to 275
CCc1nc(C)c(C(C)(O)c2ccsc2)o1 (stereo unspecified)	77.5 to 79
CC(C)S(=O)(=O)Nc1ccc(C(=O)Nc2ccc(Br)cc2)cc1	213 to 214
Cc1ccc(CSc2nc3cscc3n2C(=O)OC(C)(C)C)nc1	115 to 117
Cc1c2c(nc3ccccc13)CCN(C(=O)C(F)(F)F)CC2	147
CCCCCCCCCCCCCCCCCCN(CCCCCCCCCCCCCCCCCC)Cc1ccc(CN(CCO)CCO)cc1	49 to 50
CCCn1c(=O)c2[nH]c([C@@H](C)Cc3ccccc3)nc2n(CCC)c1=O	141 to 142
OCc1cn(-c2cccc(SC(F)(F)F)c2)cn1	73 to 75
CC(C)(C)[Si](C)(C)Oc1ccc2c(N3C(=O)c4ccccc4C3=O)n[nH]c2c1	207 to 209
COc1nc(C)cnc1NS(=O)(=O)c1cccnc1-c1ccc(-c2ncon2)cc1	179 to 180
Cc1cc(Cc2ccsc2)c(NC(=O)OCc2ccccc2)c(=O)n1CC(=O)O	153 to 155
CC(=O)N(C)Cc1ccc(NC(=O)/C=C/c2cnn(C)c2-c2ccc(F)cc2)cc1	192 to 193
CCCN1CC(c2cccc(O)c2)CC1C (stereo unspecified)	123 to 124
COc1ccc2nc3cc(N4CCN(C)CC4)c(=O)cc-3sc2c1	208 to 209
Cc1ccc(C(=O)c2c(N)cc(C(=O)O)cc2OCc2ccccc2)cc1	182 to 184

SMILES	melting point [°C]
COCOCC#Cc1nc(-c2ccc(=O)n(C(C)C)n2)c(-c2ccccc2)nc1N	133 to 135
CN(C)Cc1ccc(CSCCNC2=NS(=O)(=O)c3cscc32)o1	120 to 124
CS(=O)c1csc(NC(=O)c2ccccc2O)n1 (stereo unspecified)	240
NC(=O)CN1CC2C=CC1C2 (stereo unspecified)	74 to 96
S=C1NC(c2ccc(Cl)cc2)c2ccccc2C1CCN1CCOCC1 (stereo unspecified)	228 to 231
O=C(c1ccccc1)N1CCn2c(CN3CCOCC3)ccc2C1	101 to 102
Clc1ccccc1N=C1NCCN1	133 to 134
COc1ccc(-c2cc(-c3ccc(O)c(F)c3)nc3c(Cl)cc(O)cc23)cc1	140 to 142
CCOC(=O)CN1CC(=O)N(C)c2ccc(N)cc2C1=O	118 to 119
Cc1nnsc1C(=O)Nc1ccc(-n2nc(C(F)(F)F)cc2C(F)(F)F)c(C(F)(F)F)c1	134 to 136
CCC(NS(=O)(=O)c1ccc(N2CCOCC2)cc1)C(=O)O (stereo unspecified)	163 to 165
COC(=O)[C@@H](NC(=O)c1ccc(F)c(Br)c1)[C@@H](C)O	73 to 74
O=C(O)c1oc(=O)c2ncccc2c1-c1ccccc1	288 to 290
Oc1cc2c(cc1CCCCc1ccccc1)OC(CCc1ccccc1)C2 (stereo unspecified)	50 to 53
NC(=O)N(O)Cc1cc(Oc2ccc(Cl)cc2)cs1	141 to 142
COc1cccc(S(=O)(=O)N2C3CCC2CN(CC(=O)Nc2ccccc2C)C3)c1	163 to 165
COc1cc(C)c(Cc2cnoc2)cc1OC	68.5 to 70.5
